Drawing on patent publication EP0520200B1, “Imidazole compounds, their preparation and use” (NEUROSEARCH A/S, priority 1991, dated 1992), this text covers IC50 and antagonism of hypermotility for four molecules.

Experiment [1] has as its system voltage operated calcium channels. Nature of the experiment: Depolarization (potassium) induced 45Ca uptake into synaptosomes. The experiment is classed as biochemical, male Wistar rat. The note with it: concentration inhibiting 50% of potassium stimulated uptake of 45Ca; rat cerebral cortex synaptosomes; corrected for basal uptake in non-depolarized samples. How it is done: A crude synaptosome preparation contains small vesicles surrounded by neuronal membranes, and it is possible to study an opening of the voltage operated calcium channels in such a preparation.
In the below described test influx of ^45Ca into synaptosomes is studied under depolarized conditions. The effect of test substances on the depolarization induced calcium uptake can thus be studied.
The cerebral cortex from a male Wistar rat is homogenized in 20 ml ice cold 0.32M saccharose. In the following steps the temperature is kept at 0°C to 4°C. The homogenate is centrifuged at 1,000 x g for 10 minutes and the supernatant recentrifuged for 20 minutes at 18,000 x g. The obtained pellet is resuspended in 0.32M saccharose (10 ml per g of original tissue).
Aliquots of 0.05 ml of the hereby obtained synaptosome suspension are added to glass tubes containing 0.625 ml of a NaCl buffer (136 mM Nacl, 4 Mm KCl, 0.35 mM CaCl2, 1.2 mM MgCl2, 20 mM Tris HCl, 12 mM glucose, pH 7.4) as well as 0.025 ml of different test substances in 48% ethanol. These tubes are pre-incubated for 30 minutes on ice and thereafter for 6 minutes at 37°C.
^45Ca uptake is initiated by addition to above glass-tubes of 0.4 ml ^45CaCl2 (specific activity: 29-39 Ci/g; […] per tube). For depolarized samples the 0.4 ml ^45CaCl2 contain KCl (145 mM) and for non-depolarized NaCl (145 mM). The samples are incubated for 15 seconds.
The ^45Ca uptake is stopped by filtering through glass fibre filters, which are subsequently washed 3 times with an ice cold solution of 145 mM KCl, 7 mM EGTA and 20 mM Tris HCl, pH 7.4 (5.0 ml). The radioactivity on the filters are measured by liquid scintillation spectrometry. Experiments are performed in duplicate.
Above test substances are dissolved in for example 10 ml 48% ethanol at a concentration of 0.44 mg/ml. Dilutions are made in ethanol. Test substances are tested at concentrations of 0.1, 0.3, 1, 3, 10 .... µg/ml.
The test value is given as IC50, that is the concentration in µM of the test substances, which inhibit 50% of the potassium stimulated uptake of ^45Ca. […]

Another experiment concerns hypermotility in mice. The experiment is described as follows: Hypermotility in mice induced by amphetamine or cocaine. The experiment is classed as in vivo. The settings on record: result in words. The text has this: This is in full accordance with the influence of N-type calcium channel blockers on transmitter release in the central nervous system. Therefore the compounds of the invention are useful as anti-psychotics.

A word on the IC50: it is the point on the concentration scale where inhibition reaches its midpoint. Consider `COc1ccc(OC)c(-n2c(N)nc3cc(C(F)(F)F)ccc32)c1` [1-(2,5-dimethoxyphenyl)-2-amino-5-trifluoromethyl-benzimidazole], for which, in experiment [1], the IC50 was 700 nM.
For `Nc1nc2cc(C(F)(F)F)ccc2n1-c1cc(Cl)ccc1O` [1-(2-hydroxy-5-chlorophenyl)-5-trifluoromethyl-2-amino-benzimidazole], in experiment [1], the IC50 amounted to 2000 nM.
In the case of `Nc1nc2ccccc2n1-c1cc(-c2ccccc2)ccc1O` [1-(2-hydroxy-5-phenyl-phenyl)-2-aminobenzimidazole], the antagonism of hypermotility result with hypermotility in mice is “potently antagonize”.
In the case of `Nc1nc2cc(F)ccc2n1-c1cccc(N2CCCC2)c1` [1-(5-(1-pyrrolidinyl)-phenyl)-2-amino-5-fluoro-benzimidazole], the IC50 in experiment [1] worked out at 2000 nM.
